The target in one assay is T1, human mu opioid receptor (Homo sapiens, UniProt P35372).
T1 construct: purchased Perkin Elmer, Boston, Mass; 6110535; host or cells: CHO cells
The experiment in a line: radioligand binding, human mu opioid receptor, CHO cell membranes. The settings on record: species not given, read-out: μ.

The next assay deals with T2, human delta receptor (Homo sapiens, UniProt P41143).
T2 construct: purchased Perkin Elmer, Boston, Mass; 6110549; host or cells: HEK-293 cells
The experiment in a line: radioligand binding, human delta receptor, HEK-293 cell membranes. As to conditions: cell not marked (rat), species not given, read-out: δ.

The next assay concerns mouse vas deferens. Kind of assay: electrically stimulated mouse vas deferens (MVD) ED50. It is filed as cell-based. As to conditions: ED50, inhibition of electrically induced contractions.

T2 sequence (P41143 whole entry): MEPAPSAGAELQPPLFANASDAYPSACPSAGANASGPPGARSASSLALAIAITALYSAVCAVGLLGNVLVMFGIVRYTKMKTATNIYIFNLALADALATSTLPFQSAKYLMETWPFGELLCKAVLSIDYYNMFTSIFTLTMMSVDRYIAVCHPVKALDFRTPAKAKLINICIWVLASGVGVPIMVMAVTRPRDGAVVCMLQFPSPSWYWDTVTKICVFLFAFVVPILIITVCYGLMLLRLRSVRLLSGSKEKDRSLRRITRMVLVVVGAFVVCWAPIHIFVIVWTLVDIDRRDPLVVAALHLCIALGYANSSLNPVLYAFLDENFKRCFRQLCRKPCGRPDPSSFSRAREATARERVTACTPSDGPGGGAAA
T1 sequence (P35372 whole entry): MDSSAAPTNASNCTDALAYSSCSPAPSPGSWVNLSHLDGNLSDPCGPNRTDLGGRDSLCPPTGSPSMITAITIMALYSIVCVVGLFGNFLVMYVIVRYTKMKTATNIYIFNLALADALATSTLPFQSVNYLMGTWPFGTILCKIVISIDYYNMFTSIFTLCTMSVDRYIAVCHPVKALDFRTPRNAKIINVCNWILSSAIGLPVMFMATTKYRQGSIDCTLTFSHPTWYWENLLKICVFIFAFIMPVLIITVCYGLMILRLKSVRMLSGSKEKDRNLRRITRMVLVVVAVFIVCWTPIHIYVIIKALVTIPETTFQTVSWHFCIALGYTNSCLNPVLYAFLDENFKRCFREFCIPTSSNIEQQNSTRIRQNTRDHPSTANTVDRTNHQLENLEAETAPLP

Broadly, the EC50 is the concentration at which the effect is half-maximal. On to `CCOC(=O)CCCCCCN1CCCN(C(=O)c2cccc(C(c3cccc(O)c3)N3C[C@@H](C)N(Cc4cccc(F)c4)C[C@@H]3C)c2)CC1` (stereo partly shown), for which the Ki was found to be 7 nM at human mu opioid receptor and 13.3 nM at human delta receptor. The EC50 in the assay with mouse vas deferens turned out to be 245 nM.

On to `CCOC(=O)CCCCCCN1CCCN(C(=O)c2cccc(C(c3cccc(O)c3)N3C[C@@H](C)N(Cc4ccccc4)C[C@@H]3C)c2)CC1` (stereo partly shown), for which the Ki turned out to be 3.8 nM on human mu opioid receptor and 2.4 nM on human delta receptor. In the assay on mouse vas deferens, this compound yielded a concentration giving a half-maximal response (EC50) of 28.6 nM.

`C[C@@H]1CN([C@@H](c2cccc(O)c2)c2cccc(C(=O)N3CCN(CC(=O)O)CC3)c2)[C@@H](C)CN1Cc1ccc(F)cc1` [Example 116, (4-{3-[(R)-[(2S,5R)-4-(4-Fluoro-benzyl)-2,5-dimethyl-piperazin-1-yl]-(3-hydroxy-phenyl)-methyl]-benzoyl}-piperazin-1-yl)-acetic acid]: the Ki at human delta receptor is 0.83 nM. This compound also registered an EC50 with mouse vas deferens of 1.95 nM.

Turning to `CCOC(=O)CCCCCN1CCN(C(=O)c2cccc([C@H](c3cccc(O)c3)N3C[C@@H](C)N(Cc4cccc(F)c4)C[C@@H]3C)c2)CC1` [Example 98, 6-(4-{3-[(R)-((2S,5R)-4-(3-Fluorobenzyl)-2,5-dimethyl-piperazin-1-yl)-(3-hydroxy-phenyl)-methyl]-benzoyl}-piperazin-1-yl)-hexanoic acid ethyl ester], the Ki stood at 8.5 nM on human mu opioid receptor and 7.1 nM on human delta receptor. In the assay on mouse vas deferens, this compound had an EC50 of 102 nM.

For `CCOC(=O)CCCCN1CCN(C(=O)c2cccc([C@H](c3cccc(O)c3)N3C[C@@H](C)N(Cc4cccc(F)c4)C[C@@H]3C)c2)CC1` [Example 87, 5-(4-{3-[(R)-((2S,5R)-4-(3-Fluorobenzyl)-2,5-dimethyl-piperazin-1-yl)-(3-hydroxy-phenyl)-methyl]-benzoyl}-piperazin-1-yl)-pentanoic acid ethyl ester], the Ki at human mu opioid receptor worked out at 21.3 nM; on human delta receptor, 10.8 nM. A half-maximal response in the assay with mouse vas deferens (EC50) required 36.2 nM.

Consider `C=CCN1C[C@H](C)N([C@@H](c2cccc(O)c2)c2cccc(C(=O)N3CCN(CCCCCCC(=O)OCC)CC3)c2)C[C@H]1C` [Example 108, 7-(4-{3-[(R)-((2S,5R)-4-Allyl-2,5-dimethyl-piperazin-1-yl)-(3-hydroxy-phenyl)-methyl]-benzoyl}-piperazin-1-yl)-heptanoic acid ethyl ester], for which the EC50 with mouse vas deferens is 31.7 nM. This lies in the double-digit nanomolar range.

In turn, `CCOC(=O)CCCCCCN1CCN(C(=O)c2cccc([C@H](c3cccc(O)c3)N3C[C@@H](C)N(CC4CC4)C[C@@H]3C)c2)CC1` [Example 114, 7-(4-{3-[(R)-((2S,5R)-4-Cyclopropylmethyl-2,5-dimethyl-piperazin-1-yl)-(3-hydroxy-phenyl)-methyl]-benzoyl}-piperazin-1-yl)-heptanoic acid ethyl ester] registered an EC50 in the assay on mouse vas deferens of 221 nM.

As to `CCOC(=O)CCCN1CCN(C(=O)c2cccc([C@H](c3cccc(O)c3)N3C[C@@H](C)N(CC4CC4)C[C@@H]3C)c2)CC1` [Example 77, 4-(4-{3-[(R)-((2S,5R)-4-Cyclopropylmethyl-2,5-dimethyl-piperazin-1-yl)-(3-hydroxy-phenyl)-methyl]-benzoyl}-piperazin-1-yl)-butyric acid ethyl ester], the Ki on human mu opioid receptor came to 4.4 nM; at human delta receptor, 402 nM. Besides, the concentration giving a half-maximal response (EC50) in the assay with mouse vas deferens was found to be 111 nM.

Take `CCOC(=O)CCCCCCN1CCCN(C(=O)c2cccc(C(c3cccc(O)c3)N3C[C@@H](C)N(CC4CC4)C[C@@H]3C)c2)CC1` (stereo partly shown): the Ki was determined as 8 nM on human mu opioid receptor and 44.3 nM at human delta receptor. Besides, the EC50 in the assay on mouse vas deferens worked out at 88.1 nM.

Consider `CCOC(=O)CCCCCN1CCCN(C(=O)c2cccc(C(c3cccc(O)c3)N3C[C@@H](C)N(Cc4cccc(F)c4)C[C@@H]3C)c2)CC1` (stereo partly shown), for which the Ki on human mu opioid receptor was found to be 58.5 nM; at human delta receptor, 12.9 nM. For the same compound, in the assay with mouse vas deferens, the concentration for a half-maximal effect (EC50) came out at 156 nM.

Turning to `CCOC(=O)CCCCN1CCN(C(=O)c2cccc([C@H](c3cccc(O)c3)N3C[C@@H](C)N(CC4CC4)C[C@@H]3C)c2)CC1` [Example 89, 5-(4-{3-[(R)-((2S,5R)-4-Cyclopropylmethyl-2,5-dimethyl-piperazin-1-yl)-(3-hydroxy-phenyl)-methyl]-benzoyl}-piperazin-1-yl)-pentanoic acid ethyl ester], the Ki at human mu opioid receptor is 23.2 nM; on human delta receptor, 15.4 nM. Further, the EC50 in the assay on mouse vas deferens amounted to 92.7 nM.

As to `C=CCN1C[C@H](C)N([C@@H](c2cccc(O)c2)c2cccc(C(=O)N3CCN(Cc4cccc5c4ccn5CC(=O)O)CC3)c2)C[C@H]1C` [Example 107, [4-(4-{3-[(R)-((2S,5R)-4-Allyl-2,5-dimethyl-piperazin-1-yl)-(3-hydroxy-phenyl)-methyl]-benzoyl}-piperazin-1-ylmethyl)-indol-1-yl]-acetic acid], the Ki was determined as 6.5 nM on human mu opioid receptor and 0.95 nM on human delta receptor. Also, the half-maximal effective concentration (EC50) with mouse vas deferens was 3.97 nM.

For `C[C@@H]1CN([C@@H](c2cccc(O)c2)c2cccc(C(=O)N3CCN(CC(=O)O)CC3)c2)[C@@H](C)CN1CC1CC1` [Example 71], the Ki at human mu opioid receptor turned out to be 81.8 nM; at human delta receptor, 6.1 nM. In the assay with mouse vas deferens, the midpoint of the response, the EC50, lay at 35.9 nM.

`C[C@@H]1CN([C@@H](c2cccc(O)c2)c2cccc(C(=O)N3CCN(Cc4ccc(C(=O)O)cc4)CC3)c2)[C@@H](C)CN1Cc1cccc(O)c1` [Example 104, 4-(4-{3-[(R)-[(2S,5R)-4-(3-Hydroxy-benzyl)-2,5-dimethyl-piperazin-1-yl]-(3-hydroxy-phenyl)-methyl]-benzoyl}-piperazin-1-ylmethyl)-benzoic acid]: the Ki at human mu opioid receptor was 19.4 nM; at human delta receptor, 0.99 nM. This compound had an EC50 in the assay with mouse vas deferens of 2.06 nM.

For `CCOC(=O)CCCCN1CCCN(C(=O)c2cccc(C(c3cccc(O)c3)N3C[C@@H](C)N(CC4CC4)C[C@@H]3C)c2)CC1` (stereo partly shown), the Ki on human mu opioid receptor stood at 29.9 nM; on human delta receptor, 88.5 nM. In the assay with mouse vas deferens, this compound yielded a half-maximal effective concentration (EC50) of 116 nM.

`C[C@@H]1CN(C(c2cccc(O)c2)c2cccc(C(=O)N3CCCN(CCCCC(=O)O)CC3)c2)[C@@H](C)CN1CC1CC1` (stereo partly shown): the results for the Ki at human mu opioid receptor and on human delta receptor were 558 nM and 62.1 nM, respectively. The compound also came in with an EC50 in the assay with mouse vas deferens of 77.5 nM.

On to `C[C@@H]1CN(C(c2cccc(O)c2)c2cccc(C(=O)N3CCCN(CC(=O)O)CC3)c2)[C@@H](C)CN1Cc1cccc(F)c1` (stereo partly shown), for which, on human mu opioid receptor, the Ki amounted to 3.1 nM.

For the compound `CCOC(=O)CCCCCCN1CCN(C(=O)c2cccc([C@H](c3cccc(O)c3)N3C[C@@H](C)N(Cc4cccc(F)c4)C[C@@H]3C)c2)CC1` [Example 112, 7-(4-{3-[(R)-[(2S,5R)-4-(3-Fluoro-benzyl)-2,5-dimethyl-piperazin-1-yl]-(3-hydroxy-phenyl)-methyl]-benzoyl}-piperazin-1-yl)-heptanoic acid ethyl ester], the Ki on human mu opioid receptor amounted to 5.9 nM. The same compound registered a concentration giving a half-maximal response (EC50) in the assay with mouse vas deferens of 111 nM.

Turning to `CCOC(=O)CCCCCN1CCCN(C(=O)c2cccc(C(c3cccc(O)c3)N3C[C@@H](C)N(Cc4ccccc4)C[C@@H]3C)c2)CC1` (stereo partly shown), the Ki on human mu opioid receptor was 23.4 nM; at human delta receptor it was 3.7 nM. Also, the EC50 in the assay with mouse vas deferens turned out to be 29.6 nM.

For the compound `C=CCN1C[C@H](C)N(C(c2cccc(O)c2)c2cccc(C(=O)N3CCCN(CCCCCC(=O)OCC)CC3)c2)C[C@H]1C` (stereo partly shown), the Ki was 21.3 nM on human mu opioid receptor and 3.2 nM on human delta receptor. The compound also gave an EC50 with mouse vas deferens of 43.3 nM.

On to `C[C@@H]1CN([C@@H](c2cccc(O)c2)c2cccc(C(=O)N3CCN(CCCCCCC(=O)O)CC3)c2)[C@@H](C)CN1CC1CC1` [Example 115, 7-(4-{3-[(R)-((2S,5R)-4-Cyclopropylmethyl-2,5-dimethyl-piperazin-1-yl)-(3-hydroxy-phenyl)-methyl]-benzoyl}-piperazin-1-yl)-heptanoic acid], for which the Ki on human delta receptor is 22 nM. The EC50 in the assay with mouse vas deferens was found to be 85.8 nM.

Consider `C=CCN1C[C@H](C)N(C(c2cccc(O)c2)c2cccc(C(=O)N3CCCN(Cc4cccc(C(=O)OC)c4)CC3)c2)C[C@H]1C` (stereo partly shown), for which the EC50 in the assay with mouse vas deferens worked out at 19.6 nM. This lies in the double-digit nanomolar range.

Consider `COCCN1C[C@H](C)N([C@@H](c2cccc(O)c2)c2cccc(C(=O)N3CCN(Cc4ccc(C(=O)O)cc4)CC3)c2)C[C@H]1C` [Example 105, 4-[4-(3-{(R)-(3-Hydroxy-phenyl)-[(2S,5R)-4-(2-methoxy-ethyl)-2,5-dimethyl-piperazin-1-yl]-methyl}-benzoyl)-piperazin-1-ylmethyl]-benzoic acid], for which the Ki at human mu opioid receptor came to 88.6 nM; on human delta receptor, 32 nM. In the assay on mouse vas deferens, this compound gave an EC50 of 30.6 nM.

Consider `C[C@@H]1CN(C(c2cccc(O)c2)c2cccc(C(=O)N3CCCN(CCCCCC(=O)O)CC3)c2)[C@@H](C)CN1CC1CC1` (stereo partly shown), for which the Ki at human mu opioid receptor was 20.3 nM; at human delta receptor, 5.6 nM. Further, the EC50 with mouse vas deferens turned out to be 110 nM.

Turning to `C=CCN1C[C@H](C)N(C(c2cccc(O)c2)c2cccc(C(=O)N3CCCN(CCCCCCC(=O)OCC)CC3)c2)C[C@H]1C` (stereo partly shown), the Ki was 3.9 nM on human mu opioid receptor and 3.1 nM at human delta receptor. The EC50 in the assay with mouse vas deferens amounted to 52.3 nM.

Consider `C[C@@H]1CN(C(c2cccc(O)c2)c2cccc(C(=O)N3CCCN(CCCC(=O)O)CC3)c2)[C@@H](C)CN1CC1CC1` (stereo partly shown), for which the Ki turned out to be 26.5 nM on human mu opioid receptor and 527 nM on human delta receptor. Also, the EC50 with mouse vas deferens is 60.9 nM.

Compound `C[C@@H]1CN([C@@H](c2cccc(O)c2)c2cccc(C(=O)N3CCN(CCCCCC(=O)O)CC3)c2)[C@@H](C)CN1CC1CC1` [Example 101, 6-(4-{3-[(R)-((2S,5R)-4-Cyclopropylmethyl-2,5-dimethyl-piperazin-1-yl)-(3-hydroxy-phenyl)-methyl]-benzoyl}-piperazin-1-yl)-hexanoic acid] yielded an EC50 in the assay on mouse vas deferens of 75.8 nM.

In the assay on mouse vas deferens, `C=CCN1C[C@H](C)N(C(c2cccc(O)c2)c2cccc(C(=O)N3CCCN(Cc4ccccc4C(=O)OC)CC3)c2)C[C@H]1C` (stereo partly shown) returned an EC50 of 21.8 nM.

`CCOC(=O)CCCCCN1CCN(C(=O)c2cccc([C@H](c3cccc(O)c3)N3C[C@@H](C)N(CC4CC4)C[C@@H]3C)c2)CC1` [Example 100, 6-(4-{3-[(R)-((2S,5R)-4-Cyclopropylmethyl-2,5-dimethyl-piperazin-1-yl)-(3-hydroxy-phenyl)-methyl]-benzoyl}-piperazin-1-yl)-hexanoic acid ethyl ester] registered an EC50 in the assay with mouse vas deferens of 170 nM. Compared with the last compound, the EC50 is about 7.8-fold higher.

(Values after US7683168B2, “Compositions of novel opioid compounds and method of use thereof” (priority 2005, dated 2010).)
